# Reference: US20240376144A9, “NEUROACTIVE STEROIDS S[…] POSITION 10 WITH A CYCLIC GROUP FOR USE IN THE TREATMENT OF CNS DISORDERS” (Sage Therapeutics, Inc., priority 2018, published 2024)
# Biological target: GABAA receptor ([35S]-TBPS binding, rat brain cortical membranes)
# Test: Steroid inhibition of [35S]-TBPS binding
# Conditions: 3 nM [35S]-TBPS, in the presence of 5 mM GABA
# Method: [^35S]-t-Butylbicyclophosphorothionate (TBPS) binding assays using rat brain cortical membranes in the presence of 5 mM GABA has been described (Gee et al., J. Pharmacol. Exp. Ther. 1987, 241, 346-353; Hawkinson et al., Mol. Pharmacol. 1994, 46, 977-985; Lewin, A. H et al., Mol. Pharmacol. 1989, 35, 189-194).
# Briefly, cortices are rapidly removed following decapitation of carbon dioxide-anesthetized Sprague-Dawley rats (200-250 g). The cortices are homogenized in 10 volumes of ice-cold 0.32 M sucrose using a glass/teflon homogenizer and centrifuged at 1500×g for 10 min at 4° C. The resultant supernatants are centrifuged at 10,000×g for 20 min at 4° C. to obtain the P2 pellets. The P2 pellets are resuspended in 200 mM NaCl/50 mM Na—K phosphate pH 7.4 buffer and centrifuged at 10,000×g for 10 min at 4° C. This washing procedure is repeated twice and the pellets are resuspended in 10 volumes of buffer. Aliquots ([…]) of the membrane suspensions are incubated with 3 nM [^35S]-TBPS and […] aliquots of test drug dissolved in dimethyl sulfoxide (DMSO) (final 0.5%) in the presence of 5 mM GABA. The incubation is brought to a final volume of 1.0 mL with buffer. Nonspecific binding is determined in the presence of […] and ranged from 15 to 25%. Following a 90 min incubation at room temp, the assays are terminated by filtration through glass fiber filters (Schleicher and Schuell No. 32) using a cell harvester (Brandel) and rinsed three times with ice-cold buffer. Filter bound radioactivity is measured by liquid scintillation spectrometry. Non-linear curve fitting of the overall data for each drug averaged for each concentration is done using Prism (GraphPad). […] The concentration of test compound producing 50% inhibition (IC50) of specific binding and the maximal extent of inhibition (Imax) are determined for the individual experiments with the same model used for the overall data and then the means±SEM.s of the individual experiments are calculated.
# Various compounds are or can be screened to determine their potential as modulators of [^35S]-TBPS binding in vitro. These assays are or can be performed in accordance with the above
# In Table 2 below, A indicates a TBPS IC50 (μM)<0.1 μM, B indicates a TBPS IC50 (μM) of 0.1 μM to <1.0 μM, C indicates a TBPS IC50 (μM) of 1 μM to <10.0 μM, D means≥10 μM.
row,SMILES,IC50 [µM]
1,"C[C@@]1(O)CC[C@@]2(C3CC3)[C@H](CC[C@H]3[C@@H]4CC[C@H](C(=O)Cn5cc(C#N)cn5)[C@@]4(C)CC[C@@H]32)C1 [Compound A11, 1-(2-((3R,5R,8S,9S,10R,13S,14S,17S)-10-cyclopropyl-3-hydroxy-3,13-dimethylhexadecahydro-1H-cyclopenta[a]phenanthren-17-yl)-2-oxoethyl)-1H-pyrazole-4-carbonitrile]",< 0.1
2,"COC[C@@]1(O)CC[C@@]2(C3CC3)[C@H](CC[C@H]3[C@@H]4CC[C@H](C(=O)Cn5cc(C#N)cn5)[C@@]4(C)CC[C@@H]32)C1 [Compound 8.2b, 1-(2-((3R,5R,8S,9S,10R,13S,14S,17S)-10-cyclopropyl-3-hydroxy-3-(methoxymethyl)-13-methylhexadecahydro-1H-cyclopenta[a]phenanthren-17-yl)-2-oxoethyl)-1H-pyrazole-4-carbonitrile]",< 0.1
3,"CC(=O)[C@H]1CC[C@H]2[C@@H]3CC[C@@H]4C[C@](C)(O)CC[C@]4(C4CC4)[C@H]3CC[C@]12C [Compound A9, 1-((3R,5R,8S,9S,10R,13S,14S,17S)-10-cyclopropyl-3-hydroxy-3,13-dimethylhexadecahydro-1H-cyclopenta[a]phenanthren-17-yl)ethan-1-one]",< 0.1
4,"CCOC[C@@]1(O)CC[C@@]2(C3CC3)[C@H](CC[C@H]3[C@@H]4CC[C@H](C(C)=O)[C@@]4(C)CC[C@@H]32)C1 [Compound 4.12, 1-((3R,5R,8S,9S,10R,13S,14S,17S)-10-cyclopropyl-3-(ethoxymethyl)-3-hydroxy-13-methylhexadecahydro-1H-cyclopenta[a]phenanthren-17-yl)ethan-1-one]",< 0.1
5,"CCOC[C@@]1(O)CC[C@@]2(C3CC3)[C@H](CC[C@H]3[C@@H]4CC[C@H](C(=O)Cn5cc(C#N)cn5)[C@@]4(C)CC[C@@H]32)C1 [Compound 5.2, 1-(2-((3R,5R,8S,9S,10R,13S,14S,17S)-10-cyclopropyl-3-(ethoxymethyl)-3-hydroxy-13-methylhexadecahydro-1H-cyclopenta[a]phenanthren-17-yl)-2-oxoethyl)-1H-pyrazole-4-carbonitrile]",< 0.1
6,"COC[C@@]1(O)CC[C@@]2(C3CC3)[C@H](CC[C@H]3[C@@H]4CC[C@H](C(C)=O)[C@@]4(C)CC[C@@H]32)C1 [Compound 7.4, 1-((3R,5R,8S,9S,10R,13S,14S,17S)-10-cyclopropyl-3-hydroxy-3-(methoxymethyl)-13-methylhexadecahydro-1H-cyclopenta[a]phenanthren-17-yl)ethan-1-one]",< 0.1
7,"CCOC[C@@]1(O)CC[C@@]2(C3CC3)[C@H](CC[C@H]3[C@@H]4CC[C@H](C(=O)Cn5ccc(C#N)n5)[C@@]4(C)CC[C@@H]32)C1 [Compound 6, 1-(2-((3R,5R,8S,9S,10R,13S,14S,17S)-10-cyclopropyl-3-(ethoxymethyl)-3-hydroxy-13-methylhexadecahydro-1H-cyclopenta[a]phenanthren-17-yl)-2-oxoethyl)-1H-pyrazole-3-carbonitrile]",< 0.1
